The values below come from publication PMC4052115 (Journal of immunology (Baltimore, Md. : 1950), 2014).

In assay [1] the test system is DC2.4 cells. Type of assay: cell-based.
Assay [2] deals with H-2K^b (K^b heavy chain with β2-microglobulin), recombinant, refolded (mouse | not stated). Briefly: circular dichroism thermal denaturation. Background: Circular dichroism is widely used to follow secondary structure.
A short description of assay [3]: Immunogenicity in preliminary experiments. The settings on record: data not shown.
For assay [4], the system named is brain-derived CD8 T cells. The experiment in a line: IFN-γ intracellular cytokine staining of brain-derived leukocytes. The assay is classed as cell-based, C57BL/6 (B6) mice. The conditions noted are these: brain-derived cells of rJ-infected mice, day 7 p.i.
For assay [5], the system named is brain-derived CD8 T cells. The settings on record: ref [14]; cited from earlier work.

In the case of CSLWNGPHL [Epitope S510], in assay [1], the “detection of peptide eluted from MHC complexes” value is “neither peptide was detectable”. As to “Q600F peptide (heteroclitic S598 analogue), Aba-modified (from UniProt P22432 598-605)”, in assay [2], the Tm of the K^b/peptide complex came out at 62.7 °C. With RCEIFANI [Epitope Q600E], in assay [3], the immunogenicity result is “not immunogenic”.

With RCYIFANI [Epitope Q600Y], the “fraction of S598-primed CD8 T cells recognizing the variant peptide” value in assay [4] is given as “only a small fraction”. Besides, the “fraction of responding T cells that recognized only the variant epitope” value in assay [5] is ~ 35%. As for “S598 peptide (native epitope), Aba-modified”, the Tm of the K^b/peptide complex in assay [2] came to 56.2 °C.

Turning to TSYKFESV [Epitope B8_20-27], in assay [1], the “level of VacV-derived control peptide” value is reported as “equivalently high levels”.
